The supplement of paper PMC10307832

What was measured:
Assay in all cases: relative viability (nuclei count vs DMSO), 5 days (fraction); higher = more cells survive
NCI-H2228 = tested on: NCI-H2228
How it was run: (§1)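 Nuclei were stained with Hoechst during a one-step fixation (final 0.05% Triton X-100, 1% formaldehyde, 1 ug/ml Hoechst) carried out 5 days after dosing, then counted on 4× images. The cells, lung cancer lines in 1536-well plates, had been dosed by pin tool the day after seeding with one drug alone or a fixed anchor-drug dose plus five library-drug doses (not always all listed) in √10 steps. Relative viability is the nuclei count in treated wells divided by that in vehicle wells, and each value is the median of duplicate plates.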

ABC-1 = tested on: ABC-1
How it was run: as §1

COR-L23 = tested on: COR-L23
How it was run: as §1

NCI-H1793 = tested on: NCI-H1793
How it was run: as §1

EMC-BAC-2 = tested on: EMC-BAC-2
How it was run: as §1

NCI-H2023 = tested on: NCI-H2023
How it was run: as §1

HCC-15 = tested on: HCC-15
How it was run: as §1

NCI-H2405 = tested on: NCI-H2405
How it was run: as §1

HCC-78 = tested on: HCC-78
How it was run: as §1

LC-2-ad = tested on: LC-2-ad
How it was run: as §1

NCI-H2126 = tested on: NCI-H2126
How it was run: as §1

HCC-366 = tested on: HCC-366
How it was run: as §1

NCI-H1993 = tested on: NCI-H1993
How it was run: as §1

NCI-H1944 = tested on: NCI-H1944
How it was run: as §1

HOP-62 = tested on: HOP-62
How it was run: as §1

ChaGo-K-1 = tested on: ChaGo-K-1
How it was run: as §1

SK-LU-1 = tested on: SK-LU-1
How it was run: as §1

NCI-H23 = tested on: NCI-H23
How it was run: as §1

NCI-H838 = tested on: NCI-H838
How it was run: as §1

NCI-H358 = tested on: NCI-H358
How it was run: as §1

NCI-H1395 = tested on: NCI-H1395
How it was run: as §1

HARA = tested on: HARA
How it was run: as §1

For Cc1sc2c(c1C)C(c1ccc(Cl)cc1)=N[C@@H](CC(=O)OC(C)(C)C)c1nnc(C)n1-2 [JQ1] + N=C(N)NC(=N)NCCc1ccccc1 [Phenformin] (partner 250 µM), the relative viability (NCI-H2228; first compound 0.04 µM) was 0.305, the relative viability (NCI-H2228; first compound 0.1265 µM) was 0.275 and the relative viability (NCI-H2228; first compound 0.4 µM) was 0.297. For the same compound, the relative viability (NCI-H2228; first compound 1.265 µM) was 0.181, the relative viability (NCI-H2228; first compound 4 µM) was 0.207 and the relative viability (ABC-1; first compound 0.04 µM) was 0.238. The relative viability (ABC-1; first compound 0.1265 µM) was 0.282, the relative viability (ABC-1; first compound 0.4 µM) was 0.225 and the relative viability (ABC-1; first compound 1.265 µM) was 0.227. For the same compound, the relative viability (ABC-1; first compound 4 µM) was 0.232, the relative viability (COR-L23; first compound 0.04 µM) was 0.385 and the relative viability (COR-L23; first compound 0.1265 µM) was 0.351. For the same compound, the relative viability (COR-L23; first compound 0.4 µM) was 0.428, the relative viability (COR-L23; first compound 1.265 µM) was 0.222 and the relative viability (COR-L23; first compound 4 µM) was 0.227. For the same compound, the relative viability (NCI-H1793; first compound 0.04 µM) was 0.315, the relative viability (NCI-H1793; first compound 0.1265 µM) was 0.382 and the relative viability (NCI-H1793; first compound 0.4 µM) was 0.35. For the same compound, the relative viability (NCI-H1793; first compound 1.265 µM) was 0.274, the relative viability (NCI-H1793; first compound 4 µM) was 0.378 and the relative viability (EMC-BAC-2; first compound 0.04 µM) was 0.551. For the same compound, the relative viability (EMC-BAC-2; first compound 0.1265 µM) was 0.326, the relative viability (EMC-BAC-2; first compound 0.4 µM) was 0.454 and the relative viability (EMC-BAC-2; first compound 1.265 µM) was 0.267. For the same compound, the relative viability (EMC-BAC-2; first compound 4 µM) was 0.264, the relative viability (NCI-H2023; first compound 0.04 µM) was 0.399 and the relative viability (NCI-H2023; first compound 0.1265 µM) was 0.354. It also gave a relative viability (NCI-H2023; first compound 0.4 µM) of 0.307, a relative viability (NCI-H2023; first compound 1.265 µM) of 0.177 and a relative viability (NCI-H2023; first compound 4 µM) of 0.147. For the same compound, the relative viability (HCC-15; first compound 0.04 µM) was 0.458, the relative viability (HCC-15; first compound 0.4 µM) was 0.318 and the relative viability (HCC-15; first compound 1.265 µM) was 0.189. For the same compound, the relative viability (HCC-15; first compound 4 µM) was 0.19, the relative viability (NCI-H2405; first compound 0.04 µM) was 0.381 and the relative viability (NCI-H2405; first compound 0.1265 µM) was 0.224. It also gave a relative viability (NCI-H2405; first compound 0.4 µM) of 0.385, a relative viability (NCI-H2405; first compound 1.265 µM) of 0.239 and a relative viability (NCI-H2405; first compound 4 µM) of 0.223. It also gave a relative viability (HCC-78; first compound 0.04 µM) of 0.727, a relative viability (HCC-78; first compound 0.1265 µM) of 0.657 and a relative viability (HCC-78; first compound 0.4 µM) of 0.727. It also gave a relative viability (HCC-78; first compound 1.265 µM) of 0.515, a relative viability (HCC-78; first compound 4 µM) of 0.435 and a relative viability (LC-2-ad; first compound 0.04 µM) of 0.537. The relative viability (LC-2-ad; first compound 0.1265 µM) was 0.468, the relative viability (LC-2-ad; first compound 0.4 µM) was 0.401 and the relative viability (LC-2-ad; first compound 1.265 µM) was 0.222. It also gave a relative viability (LC-2-ad; first compound 4 µM) of 0.294, a relative viability (NCI-H2126; first compound 0.04 µM) of 0.552 and a relative viability (NCI-H2126; first compound 0.1265 µM) of 0.555. The relative viability (NCI-H2126; first compound 0.4 µM) was 0.489, the relative viability (NCI-H2126; first compound 1.265 µM) was 0.39 and the relative viability (NCI-H2126; first compound 4 µM) was 0.411. For the same compound, the relative viability (HCC-366; first compound 0.04 µM) was 0.699, the relative viability (HCC-366; first compound 0.4 µM) was 0.614 and the relative viability (HCC-366; first compound 1.265 µM) was 0.412. The relative viability (HCC-366; first compound 4 µM) was 0.376, the relative viability (NCI-H1993; first compound 0.04 µM) was 0.49 and the relative viability (NCI-H1993; first compound 0.1265 µM) was 0.55. It also gave a relative viability (NCI-H1993; first compound 0.4 µM) of 0.561, a relative viability (NCI-H1993; first compound 1.265 µM) of 0.557 and a relative viability (NCI-H1993; first compound 4 µM) of 0.572. It also gave a relative viability (NCI-H1944; first compound 0.04 µM) of 0.195, a relative viability (NCI-H1944; first compound 0.1265 µM) of 0.174 and a relative viability (NCI-H1944; first compound 0.4 µM) of 0.191. The relative viability (NCI-H1944; first compound 1.265 µM) was 0.149, the relative viability (NCI-H1944; first compound 4 µM) was 0.182 and the relative viability (HOP-62; first compound 0.04 µM) was 0.633. The relative viability (HOP-62; first compound 0.1265 µM) was 0.547, the relative viability (HOP-62; first compound 0.4 µM) was 0.622 and the relative viability (HOP-62; first compound 1.265 µM) was 0.182. For the same compound, the relative viability (HOP-62; first compound 4 µM) was 0.102, the relative viability (ChaGo-K-1; first compound 0.04 µM) was 0.436 and the relative viability (ChaGo-K-1; first compound 0.1265 µM) was 0.495. It also gave a relative viability (ChaGo-K-1; first compound 0.4 µM) of 0.401, a relative viability (ChaGo-K-1; first compound 1.265 µM) of 0.324 and a relative viability (ChaGo-K-1; first compound 4 µM) of 0.286. It also gave a relative viability (SK-LU-1; first compound 0.04 µM) of 0.607, a relative viability (SK-LU-1; first compound 0.1265 µM) of 0.386 and a relative viability (SK-LU-1; first compound 0.4 µM) of 0.458. The relative viability (SK-LU-1; first compound 1.265 µM) was 0.171, the relative viability (SK-LU-1; first compound 4 µM) was 0.136 and the relative viability (NCI-H23; first compound 0.04 µM) was 0.749. The relative viability (NCI-H23; first compound 0.1265 µM) was 0.768, the relative viability (NCI-H23; first compound 0.4 µM) was 0.812 and the relative viability (NCI-H23; first compound 1.265 µM) was 0.414. For the same compound, the relative viability (NCI-H23; first compound 4 µM) was 0.592, the relative viability (NCI-H838; first compound 0.04 µM) was 0.554 and the relative viability (NCI-H838; first compound 0.1265 µM) was 0.285. It also gave a relative viability (NCI-H838; first compound 0.4 µM) of 0.372, a relative viability (NCI-H838; first compound 1.265 µM) of 0.253 and a relative viability (NCI-H838; first compound 4 µM) of 0.17. For the same compound, the relative viability (NCI-H358; first compound 0.04 µM) was 0.355, the relative viability (NCI-H358; first compound 0.1265 µM) was 0.335 and the relative viability (NCI-H358; first compound 0.4 µM) was 0.361. It also gave a relative viability (NCI-H358; first compound 1.265 µM) of 0.198, a relative viability (NCI-H358; first compound 4 µM) of 0.161 and a relative viability (NCI-H1395; first compound 0.04 µM) of 0.439. For the same compound, the relative viability (NCI-H1395; first compound 0.1265 µM) was 0.417, the relative viability (NCI-H1395; first compound 0.4 µM) was 0.478 and the relative viability (NCI-H1395; first compound 1.265 µM) was 0.455. For the same compound, the relative viability (NCI-H1395; first compound 4 µM) was 0.396, the relative viability (HARA; first compound 0.04 µM) was 0.465 and the relative viability (HARA; first compound 0.1265 µM) was 0.236. For the same compound, the relative viability (HARA; first compound 0.4 µM) was 0.484, the relative viability (HARA; first compound 1.265 µM) was 0.173 and the relative viability (HARA; first compound 4 µM) was 0.186.
